The target of experiment [1] is T1, Serine/threonine-protein kinase Nek2 (Homo sapiens) (UniProt P51955).
T1 sequence (whole entry): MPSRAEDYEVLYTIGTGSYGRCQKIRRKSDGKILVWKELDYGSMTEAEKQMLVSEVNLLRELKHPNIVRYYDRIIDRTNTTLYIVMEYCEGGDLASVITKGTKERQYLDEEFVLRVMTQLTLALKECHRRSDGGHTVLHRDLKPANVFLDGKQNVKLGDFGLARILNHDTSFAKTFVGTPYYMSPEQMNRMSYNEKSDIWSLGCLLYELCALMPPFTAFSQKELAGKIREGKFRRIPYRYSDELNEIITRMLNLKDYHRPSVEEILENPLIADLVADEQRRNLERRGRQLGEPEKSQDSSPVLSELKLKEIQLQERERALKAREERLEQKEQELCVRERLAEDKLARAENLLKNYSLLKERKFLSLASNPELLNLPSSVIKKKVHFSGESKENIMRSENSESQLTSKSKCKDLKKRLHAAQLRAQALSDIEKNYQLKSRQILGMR

Experiment [2] has as its target Ribosomal protein S6 kinase alpha-3 (Homo sapiens) (UniProt P51812).
Experiment [3] deals with Cyclin-dependent kinase 2 (Homo sapiens, UniProt P24941).
The target in experiment [4] is Death-associated protein kinase 3 (Homo sapiens) (UniProt O43293).
Death-associated protein kinase 3 (Homo sapiens), sequence (O43293 whole entry, looked up, canonical isoform): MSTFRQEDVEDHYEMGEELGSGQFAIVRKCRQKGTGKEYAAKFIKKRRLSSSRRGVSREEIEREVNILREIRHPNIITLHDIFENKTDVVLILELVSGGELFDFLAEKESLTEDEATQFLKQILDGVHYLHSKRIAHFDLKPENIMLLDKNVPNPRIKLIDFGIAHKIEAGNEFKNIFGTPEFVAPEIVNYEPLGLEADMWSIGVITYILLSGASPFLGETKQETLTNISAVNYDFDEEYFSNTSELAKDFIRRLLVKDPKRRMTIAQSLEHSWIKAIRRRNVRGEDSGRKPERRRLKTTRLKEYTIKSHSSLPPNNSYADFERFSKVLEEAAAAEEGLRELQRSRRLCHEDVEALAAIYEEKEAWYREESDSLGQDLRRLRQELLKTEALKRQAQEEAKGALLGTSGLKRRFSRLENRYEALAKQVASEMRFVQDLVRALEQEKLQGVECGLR
Experiment [5] concerns the target Casein kinase I isoform gamma-1 (Homo sapiens) (UniProt Q9HCP0).
Experiment [6] addresses T2, Dual specificity mitogen-activated protein kinase kinase 6 (Homo sapiens) (UniProt P52564).
T2 sequence (whole entry): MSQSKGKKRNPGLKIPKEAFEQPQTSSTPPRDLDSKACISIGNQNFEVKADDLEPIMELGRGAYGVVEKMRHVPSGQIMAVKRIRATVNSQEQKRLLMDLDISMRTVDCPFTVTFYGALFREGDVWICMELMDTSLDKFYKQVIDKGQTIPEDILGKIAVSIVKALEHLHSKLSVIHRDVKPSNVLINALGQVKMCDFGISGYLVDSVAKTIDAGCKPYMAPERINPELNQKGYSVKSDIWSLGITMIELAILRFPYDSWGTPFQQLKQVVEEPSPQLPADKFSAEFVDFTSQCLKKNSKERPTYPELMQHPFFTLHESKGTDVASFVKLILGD

In experiment [7] the target is Mitogen-activated protein kinase 11 (Homo sapiens, UniProt Q15759).
Mitogen-activated protein kinase 11, sequence (Q15759 whole entry): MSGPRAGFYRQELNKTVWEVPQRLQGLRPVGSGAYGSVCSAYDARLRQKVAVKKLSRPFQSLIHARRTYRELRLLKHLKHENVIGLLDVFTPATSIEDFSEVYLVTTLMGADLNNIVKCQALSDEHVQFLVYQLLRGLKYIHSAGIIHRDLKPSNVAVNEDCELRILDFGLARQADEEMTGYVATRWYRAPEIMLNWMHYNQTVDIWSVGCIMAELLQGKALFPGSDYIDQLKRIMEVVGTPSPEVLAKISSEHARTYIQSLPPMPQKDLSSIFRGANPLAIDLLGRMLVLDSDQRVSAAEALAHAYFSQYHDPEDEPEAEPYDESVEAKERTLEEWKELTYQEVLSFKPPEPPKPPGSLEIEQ
For experiment [8], the target named is Serine/threonine-protein kinase pim-1 (Homo sapiens) (UniProt P11309).
Serine/threonine-protein kinase pim-1 (Homo sapiens), sequence (P11309 whole entry, looked up): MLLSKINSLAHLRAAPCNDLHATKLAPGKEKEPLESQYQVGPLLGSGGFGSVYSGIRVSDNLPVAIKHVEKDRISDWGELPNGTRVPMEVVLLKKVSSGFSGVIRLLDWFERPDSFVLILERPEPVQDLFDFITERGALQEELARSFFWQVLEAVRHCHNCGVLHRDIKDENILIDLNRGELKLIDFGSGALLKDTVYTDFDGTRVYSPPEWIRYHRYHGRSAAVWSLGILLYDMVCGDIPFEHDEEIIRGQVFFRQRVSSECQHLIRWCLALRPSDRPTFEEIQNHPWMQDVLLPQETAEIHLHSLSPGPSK
In experiment [9] the target is T3, Serine/threonine-protein kinase 4 (Homo sapiens) (UniProt Q13043).
T3 sequence (whole entry): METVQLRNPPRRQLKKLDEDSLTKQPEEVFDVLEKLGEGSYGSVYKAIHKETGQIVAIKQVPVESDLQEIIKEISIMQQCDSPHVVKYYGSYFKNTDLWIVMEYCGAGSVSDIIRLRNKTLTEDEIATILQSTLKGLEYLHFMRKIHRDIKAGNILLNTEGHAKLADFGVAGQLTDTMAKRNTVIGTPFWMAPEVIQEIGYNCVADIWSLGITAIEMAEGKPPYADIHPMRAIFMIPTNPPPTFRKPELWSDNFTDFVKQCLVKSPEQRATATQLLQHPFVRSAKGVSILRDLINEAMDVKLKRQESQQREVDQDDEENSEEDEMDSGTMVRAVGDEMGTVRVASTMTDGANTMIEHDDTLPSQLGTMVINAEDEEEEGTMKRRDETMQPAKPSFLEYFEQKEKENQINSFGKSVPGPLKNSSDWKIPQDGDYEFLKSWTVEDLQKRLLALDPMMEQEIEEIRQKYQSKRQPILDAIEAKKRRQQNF

Experiment [10] deals with Serine/threonine-protein kinase PAK 4 (Homo sapiens) (UniProt O96013).
Serine/threonine-protein kinase PAK 4 (Homo sapiens), sequence (O96013 whole entry, looked up): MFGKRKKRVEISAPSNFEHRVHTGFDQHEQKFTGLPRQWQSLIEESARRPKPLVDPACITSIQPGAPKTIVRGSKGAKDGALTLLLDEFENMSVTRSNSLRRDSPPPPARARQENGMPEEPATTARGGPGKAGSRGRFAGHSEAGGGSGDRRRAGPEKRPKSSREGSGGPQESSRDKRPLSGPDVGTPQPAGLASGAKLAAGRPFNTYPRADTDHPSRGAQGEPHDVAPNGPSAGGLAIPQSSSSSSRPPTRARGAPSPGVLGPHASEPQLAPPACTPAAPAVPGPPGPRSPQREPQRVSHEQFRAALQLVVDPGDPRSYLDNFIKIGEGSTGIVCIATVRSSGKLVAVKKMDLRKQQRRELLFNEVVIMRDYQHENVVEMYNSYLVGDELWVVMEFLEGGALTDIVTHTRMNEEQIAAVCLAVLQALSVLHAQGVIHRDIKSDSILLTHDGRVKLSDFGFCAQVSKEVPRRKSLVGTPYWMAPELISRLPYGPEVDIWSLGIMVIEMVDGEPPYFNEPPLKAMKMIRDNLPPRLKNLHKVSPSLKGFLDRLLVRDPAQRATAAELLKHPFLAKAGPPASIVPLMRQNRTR
Experiment [11] concerns the target T4, Myotonin-protein kinase (Homo sapiens) (UniProt Q09013).
T4 sequence (whole entry): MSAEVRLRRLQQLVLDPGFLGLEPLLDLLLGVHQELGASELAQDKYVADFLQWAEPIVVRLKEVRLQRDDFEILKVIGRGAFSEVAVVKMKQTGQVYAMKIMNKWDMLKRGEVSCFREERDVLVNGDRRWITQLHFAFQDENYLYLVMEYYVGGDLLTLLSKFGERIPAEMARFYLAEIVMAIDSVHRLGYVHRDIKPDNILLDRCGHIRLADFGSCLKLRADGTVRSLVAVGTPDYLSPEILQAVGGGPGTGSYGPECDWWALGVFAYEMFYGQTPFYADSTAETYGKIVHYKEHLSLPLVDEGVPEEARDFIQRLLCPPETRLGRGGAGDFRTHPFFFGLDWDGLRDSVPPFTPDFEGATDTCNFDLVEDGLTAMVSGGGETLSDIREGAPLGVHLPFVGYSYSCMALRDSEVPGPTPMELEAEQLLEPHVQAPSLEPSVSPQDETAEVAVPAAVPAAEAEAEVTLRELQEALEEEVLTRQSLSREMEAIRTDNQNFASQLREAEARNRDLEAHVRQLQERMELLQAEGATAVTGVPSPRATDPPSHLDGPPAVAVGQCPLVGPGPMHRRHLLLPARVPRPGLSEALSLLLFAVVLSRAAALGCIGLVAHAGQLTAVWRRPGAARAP

Ribosomal protein S6 kinase alpha-3 (Homo sapiens), sequence (P51812 whole entry): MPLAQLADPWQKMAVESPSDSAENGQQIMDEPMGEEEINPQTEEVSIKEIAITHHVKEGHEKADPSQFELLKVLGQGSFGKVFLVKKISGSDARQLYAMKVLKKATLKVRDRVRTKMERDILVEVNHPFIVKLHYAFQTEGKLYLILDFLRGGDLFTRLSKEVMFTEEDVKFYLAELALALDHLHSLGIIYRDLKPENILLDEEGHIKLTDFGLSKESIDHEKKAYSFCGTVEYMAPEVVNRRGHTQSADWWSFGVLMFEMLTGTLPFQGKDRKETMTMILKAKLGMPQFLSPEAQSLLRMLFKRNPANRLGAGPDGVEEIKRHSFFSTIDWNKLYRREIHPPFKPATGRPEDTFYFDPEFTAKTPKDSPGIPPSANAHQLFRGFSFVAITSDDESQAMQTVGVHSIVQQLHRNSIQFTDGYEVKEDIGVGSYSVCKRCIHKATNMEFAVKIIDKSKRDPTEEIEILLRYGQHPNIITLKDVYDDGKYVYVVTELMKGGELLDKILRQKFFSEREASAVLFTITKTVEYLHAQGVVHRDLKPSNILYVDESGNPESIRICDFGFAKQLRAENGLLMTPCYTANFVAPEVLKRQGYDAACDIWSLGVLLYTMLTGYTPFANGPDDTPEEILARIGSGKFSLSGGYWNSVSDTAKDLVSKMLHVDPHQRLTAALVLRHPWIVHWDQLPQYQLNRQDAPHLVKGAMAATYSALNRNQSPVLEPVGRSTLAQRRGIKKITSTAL
Casein kinase I isoform gamma-1 (Homo sapiens), sequence (Q9HCP0 whole entry, looked up, canonical isoform): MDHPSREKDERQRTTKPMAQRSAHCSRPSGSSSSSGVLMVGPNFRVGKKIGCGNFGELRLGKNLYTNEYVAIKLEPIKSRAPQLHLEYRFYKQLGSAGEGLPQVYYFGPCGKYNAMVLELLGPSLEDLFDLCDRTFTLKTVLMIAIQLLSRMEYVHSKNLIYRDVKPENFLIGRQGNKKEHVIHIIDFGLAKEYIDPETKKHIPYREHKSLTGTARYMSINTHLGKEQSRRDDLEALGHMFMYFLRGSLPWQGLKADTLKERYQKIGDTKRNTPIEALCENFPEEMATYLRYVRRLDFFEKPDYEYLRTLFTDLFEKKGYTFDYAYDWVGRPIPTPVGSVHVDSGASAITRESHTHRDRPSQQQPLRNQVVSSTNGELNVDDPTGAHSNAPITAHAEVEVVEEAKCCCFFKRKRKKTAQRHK

The ΔTm is the change in melting temperature against a reference sample. Take `O=C(O)/C=C/c1cc(CO)ccc1CO`: the ΔTm was 1 °C in experiment [1]; 0.3 °C in [2]; 0.9 °C in [3]; 0.8 °C in [4]; 0.7 °C in [5]; -0.2 °C in experiment [6]. In addition, the ΔTm in [7] was 0.3 °C; in experiment [8], 0.6 °C; in [9] it was 0 °C; in experiment [10], 0.1 °C; in [11], -0.1 °C.

Regarding `Cn1cc(C2=C(c3cn(CCCSC(=N)N)c4ccccc34)C(=O)NC2=O)c2ccccc21`, the ΔTm is 0.4 °C in experiment [1]; 2.1 °C in experiment [2]; 8.4 °C in [3]; 1.5 °C in experiment [4]; 0.6 °C in experiment [5]; 0.9 °C in experiment [6]. Besides, the ΔTm was 2 °C in experiment [7]; 9.7 °C in experiment [8]; 7.4 °C in experiment [9]; 3.4 °C in [10]; 7.1 °C in [11].

Regarding `CC(C)n1cnc2c(NCc3ccccc3)nc(NCCCO)nc21`, the ΔTm is 0.9 °C in [1]; 2.5 °C in [2]; 0.9 °C in experiment [3]; 0.7 °C in experiment [4]; 1.4 °C in experiment [5]; 0 °C in experiment [6]. The ΔTm in experiment [7] was 0.1 °C; in experiment [8] it was 0.1 °C; in experiment [9], -0.3 °C; in experiment [10] it was -0.6 °C; in [11] it was 0 °C.

As to `COc1cc2ncnc(Nc3cccc(Br)c3)c2cc1OC`, the ΔTm came out at 0.6 °C in [1]; 0.1 °C in [2]; 0.1 °C in experiment [3]; 1.8 °C in experiment [4]; 0.8 °C in experiment [5]; 0.4 °C in [6]. Also, the ΔTm is 1.8 °C in experiment [7]; 0.7 °C in experiment [8]; 1.5 °C in [9]; 0.2 °C in experiment [10]; 0.3 °C in [11].

In the case of `Cc1cncc2cccc(S(=O)(=O)N3CCCNC[C@@H]3C)c12`, the ΔTm in experiment [1] is -0.2 °C; in experiment [2] it was 5.5 °C; in experiment [3], 0.7 °C; in experiment [4] it was 4.8 °C; in experiment [5], 0 °C; in experiment [6], 0.4 °C. Moreover, the ΔTm in experiment [7] was -0.1 °C; in [8], 0.7 °C; in [9], 3.3 °C; in experiment [10], 0.7 °C; in [11], 0.4 °C.

Regarding `CCOc1cc(/C=C(\C#N)C(N)=O)cc(CSc2ccccc2)c1O`, the ΔTm is 0.3 °C in [1]; 0.1 °C in experiment [2]; 0.8 °C in [3]; 0.1 °C in experiment [4]; 0.2 °C in experiment [5]; 1.6 °C in experiment [6]. In addition, the ΔTm was -0.3 °C in [7]; -0.1 °C in experiment [8]; 0.4 °C in experiment [9]; -0.5 °C in [10]; -0.5 °C in experiment [11].

For `O=c1c(-c2ccc(F)cc2)c(-c2ccncc2)[nH]n1-c1ccc(Cl)cc1`, the ΔTm in experiment [1] turned out to be 1.4 °C; in [2], 0 °C; in experiment [3] it was 0.2 °C; in experiment [4], 0.6 °C; in experiment [5] it was 0.5 °C; in experiment [6], 0.3 °C. Also, the ΔTm in experiment [7] was 7.1 °C; in experiment [8], -0.1 °C; in experiment [9], 1.8 °C; in experiment [10], 0.7 °C; in experiment [11], 0.5 °C.

Turning to `O=C1C=C2C(=Nc3c2c2c(c4c3=NC3=C4CCC=C3)C=NC=2)CC1`, the ΔTm in experiment [1] was 2.8 °C; in experiment [2] it was 5.1 °C; in experiment [3], 4 °C; in [4], 3.8 °C; in [5], 0.9 °C; in experiment [6], 5.3 °C. The ΔTm amounted to 1.2 °C in experiment [7]; 7.5 °C in [8]; 2.1 °C in [9]; 3.8 °C in [10]; 5.1 °C in experiment [11].

As to `COc1cc2ncnc(Nc3ccc(F)c(Cl)c3)c2cc1OCCCN1CCOCC1`, the ΔTm in experiment [1] stood at 1.1 °C; in experiment [2] it was 5.3 °C; in experiment [3] it was 0 °C; in experiment [4] it was 3.2 °C; in experiment [5] it was 0.5 °C; in experiment [6], 0.1 °C. Also, the ΔTm in [7] came out at 0.8 °C; in experiment [8] it was 3.4 °C; in experiment [9], 1.6 °C; in [10], 1.2 °C; in experiment [11], 3.6 °C.

Consider `Cc1cc2ncc(-c3ccccc3)nc2cc1C`, for which the ΔTm was 2.1 °C in experiment [1]; -0.1 °C in experiment [2]; 0.3 °C in experiment [3]; -0.1 °C in [4]; 0.7 °C in [5]; 0.3 °C in experiment [6]. In addition, the ΔTm was -0.3 °C in experiment [7]; 0.2 °C in experiment [8]; 2.2 °C in experiment [9]; 1.1 °C in experiment [10]; 1.2 °C in [11].

For the molecule `O=C1Nc2ccc(I)cc2/C1=C1/Nc2ccccc2/C1=N\O`, the ΔTm in experiment [1] came out at 1.4 °C; in experiment [2], 3.3 °C; in experiment [3], 6.8 °C; in experiment [4] it was 1.4 °C; in [5], 1.5 °C; in experiment [6], 1.5 °C. Moreover, the ΔTm in [7] came to 1.3 °C; in experiment [8], 1.7 °C; in [9] it was 9.5 °C; in experiment [10] it was 2.3 °C; in experiment [11], 1 °C.

As to `Oc1cccc(-c2nc(N3CCOCC3)c3oc4ncccc4c3n2)c1`, the ΔTm in [1] was 0.5 °C; in experiment [2] it was -0.6 °C; in experiment [3], 0.4 °C; in experiment [4], 0 °C; in experiment [5], 0.4 °C; in [6], 0 °C. Besides, the ΔTm in [7] was 1 °C; in experiment [8], -0.4 °C; in experiment [9], -0.1 °C; in experiment [10] it was 0.7 °C; in [11], -0.7 °C.

For `O=C1Nc2ccc(I)cc2/C1=C\c1cc(Br)c(O)c(Br)c1`, the ΔTm in experiment [1] is -2.2 °C; in experiment [2], 5.1 °C; in experiment [3], 1.2 °C; in experiment [4] it was 2.6 °C; in [5], 0.2 °C; in [6] it was 1.6 °C. Moreover, the ΔTm in experiment [7] is -0.2 °C; in [8], 2.5 °C; in [9], 4.1 °C; in experiment [10], -0.8 °C; in [11], 0.2 °C.

`Oc1ccc(-c2nc(-c3ccc(F)cc3)c(-c3ccncc3)[nH]2)cc1`: the ΔTm in experiment [1] came to 0.2 °C; in [2], 0.3 °C; in [3] it was 0.4 °C; in [4], 0.9 °C; in experiment [5] it was 1 °C; in [6], 0.3 °C. For the same molecule, the ΔTm in experiment [7] is 10.9 °C; in experiment [8], -1.4 °C; in experiment [9] it was 0.9 °C; in experiment [10], -0.3 °C; in experiment [11] it was 0.2 °C.

The record behind these values is ChEMBL document CHEMBL1145498, “A systematic interaction map of validated kinase inhibitors with Ser/Thr kinases” (Proc Natl Acad Sci U S A, 2007).
